From article PMC7870626, “Neurotoxicity and underlying cellular changes of 21 mitochondrial respiratory chain inhibitors” (Archives of Toxicology, 2021)
Read-outs that look alike come from different tables or passages of the source.

Key:
[1] = tested on: MRC complex (cI, cII or cIII); assay: HepG2-based MRC complex assay in permeabilized cells (earlier study); type: cell-based; settings: NeuriTox neurite EC25 relative to complex assay EC25 in permeabilized cells; respirometric data from HepG2-based assays ref van der Stel et al. 2020
HepG2 cells = assay: HepG2-based respirometry, total cell respiration (earlier study); settings: NeuriTox neurite EC25 relative to cell respiration EC25; respirometric data from HepG2-based assays ref van der Stel et al. 2020
proteasome = assay: Proteasomal activity (KE3 assay) in LUHMES cells; type: cell-based, human; settings: NeuriTox neurite EC25 relative to proteasomal activity EC25, LUHMES
Description: Activity of the proteasome was quantified as described in (Gutbier et al. [2018b]). Briefly, after exposure, culture medium was replaced by assay buffer containing a cell-permeable proteasomal substrate (MeOSuc-Gly-Leu-Phe-AMC, 25 µM (Bachem, Bubendorf, Switzerland) in HBSS). Its AMC-fluorescence (ex: 360 nm, em: 465 nm) increases with proteasomal activity and was monitored for 90 min. Background-corrected data were used for further analysis.

LUHMES cells [2] = type: cell-based, human; settings: 24 h, vs 0.1% DMSO; for log2FoldChange AARS: gene AARS; for log2FoldChange AASDHPPT: gene AASDHPPT; for log2FoldChange AATF: gene AATF; for log2FoldChange ABCA1: gene ABCA1; for log2FoldChange ABCA6: gene ABCA6
Description: Cells were cultured and treated as described above for the NeuriTox assay. On d3, after 24 h treatment, culture medium was replaced by 33 µl/well 1 × Biospyder lysis buffer. After 15 min at room temperature, plates were sealed and frozen at -80 °C to complete lysis. Samples were analyzed at Bioclavis (Glasgow) using the TempO-Seq technique and the EU-ToxRisk v2.0 gene probe panel covering ca. 3000 genes (Yeakley et al. [2017]). All genes are listed in the supplementary excel file (containing also all gene regulations). Briefly, a 50 bp fragment of the target gene was amplified. The amplification step also introduced sample-specific barcodes. This allowed pooling of all samples and standard next-generation sequencing of the ensemble. Afterward, adapters were used to allocate the sequenced fragments to the correct samples. Finally, the alignment of all sequenced fragments (FASTQ files) for each sample to the collection of reference 50 bp oligonucleotides was performed for the quantification of reads per gene, also known as the read count values. In a pre-filtering step, samples with a total count < 0.2 million and genes with an average count < 1.5 were removed.
To correct for both read depth and RNA composition, the DESeq2′s median of ratios normalization was applied. The analysis of differentially expressed genes (DEG) of each treatment against the control group was done by the Wald test implemented in DESeq2/R (Love et al. [2014]), including an FDR correction for p-adjusted ≤ 0.05. […] A curve was fit through these concentration–response data to obtain EC10DEG. For comparability, all DEG data were normalized to a positive control. […] The EC10DEG was calculated using an established online open access BMC calculator (BMCeasy) (Krebs et al. [2020]).

LUHMES cells [3] = assay: NeuriTox test: neurite area and viability, 24 h; type: cell-based, human; settings: for EC25: Homo sapiens
Description: (§1) The NeuriTox test was performed as previously described (Delp et al. [2018b]; Krug et al. [2013a]; Stiegler et al. [2011]). Briefly, cells differentiated for 48 h were re-seeded into 96-well plates at a density of 100,000 cells/cm^2 in DM without cAMP and GDNF, and treated 1 h after seeding for 24 h. Subsequently, multiple endpoints were determined, e.g., neurite outgrowth (i.e., NeuriTox test), resazurin reduction, intracellular ATP content, gene expression levels from TempO-Seq analysis, and proteasomal activity. For the 120 h exposure scenario, LUHMES cells were differentiated for another 3 days after reseeding before they were treated on day 5 (d5) and d7 by a half medium exchange. Endpoints were determined on d10 of differentiation.
Image acquisition and analysis was performed as described previously (Krug et al. [2013a]; Schildknecht et al. [2013]; Stiegler et al. [2011]). In brief, cells were live-stained with 1 µg/ml Hoechst H-33342 and 1 µM calcein-AM and image acquisition was done by an automated high content imager (Cellomics, Waltham, MA, USA). Cell viability was determined as ratio of live cells (cell bodies being Calcein- and Hoechst-positive) relative to the total amount of cells (Hoechst-positive cell bodies). Neurite area was calculated by subtracting the somatic area (Hoechst-positive area plus surrounding) from the calcein-positive area.

SH-SY5Y cells = assay: Mitochondrial membrane potential (rhodamine 123), KE2 assay; type: cell-based, human; settings: for Ratios of EC25 KE4/KE2 MMP: NeuriTox neurite EC25 relative to SH-SY5Y MMP EC25
Description: Cells were plated at a cell density of 29,500 cells/cm^2 and handled as described above for the neurite SH-SY5Y degeneration. On d6 of differentiation, 50% of the medium was replaced by differentiation medium containing 2 µM Rhodamine 123 (ThermoFisher). After 45 min of preloading at 37 °C with 5% CO2 in darkness, the Rhodamine 123 solution was completely removed and cells were carefully washed once with 200 µl DMEM:F12. Subsequently, 50 µl differentiation medium per well were added followed by the addition of 50 µl/well of test compounds in medium. After 24 h of exposure to the test compounds, the nuclei were stained for 30 min with 20 µL of a solution containing 20 µM Hoechst 33342, and the images were then acquired with a 10 × objective lens using the ImageXpress® Micro (Molecular Devices) high content microplate imager. Nuclei were evaluated in the DAPI channel (excitation 377 ± 50 nm, emission 447 ± 60 nm), whereas Rhodamine 123 fluorescence was detected in the FITC channel (excitation 475 ± 34 nm, emission 536 ± 40 nm). Analysis of the Hoechst 33,342 and Rhodamine 123 fluorescence was performed using the MetaXpress® Software (Molecular Devices) with the Transfluor HT plug-in and the parameters nuclei (for Hoechst-33342) and integrated granule intensity (for Rhodamine 123). Mitochondrial membrane potential (MMP) was quantified as the total fluorescence intensity of Rhodamine 123 in relation to the number of Hoechst-stained nuclei.

U2OS cells = assay: cells; type: cell-based; settings: Homo sapiens; U2OS osteosarcoma cells, 24 h, luminescence of constitutively expressed luciferase; read-out: Cytotox EC25 U2OS (converted)
Description: A cell suspension of 100,000 cells/ml was prepared in assay medium, and white 384-well plates were filled with 30 µl/well cell suspension. Twenty-four hours after seeding, a dilution series of test compound, as well as positive and negative controls, were added to the cells. After 24 h exposure, the medium was removed, and 10 µl of Triton X-100 lysis buffer was added to each well. The luminescent signal was determined in a luminometer by injecting BDS Illuminate Mix and measuring the light emission. The Cytotox CALUX cell line constitutively expresses a high level of luciferase protein; the light emission is therefore proportional to the cell number of live cells, and its decrease can be used as measure of cytotoxicity. The light emission generated by cells exposed to vehicle control was set to 100%, and the luminescence of cells exposed to the positive control toxicant tributyltin acetate [100 µM] was set to 0%. The light output of the cells exposed to different concentrations of test compounds was scaled accordingly.

LUHMES cells [4] = assay: Intracellular ATP content after NeuriTox exposure; type: cell-based; settings: Homo sapiens; NeuriTox exposure scheme, 24 h; read-out: LUHMES 24 h EC25 ATP (converted)
Description: as §1
Plates from the NeuriTox test were further used after imaging for determination of alternative endpoints. Intracellular ATP was determined as described earlier (Delp et al. [2019]). In brief, CellTiterGlo 2.0 assay mix (Promega) containing luciferase was added after imaging, and luminescence was recorded. For the determination of resazurin reduction, a 10 × resazurin stock solution was added after imaging to the medium (final resazurin concentration 2 µg/ml) (Delp et al. [2018a]). After 60 min incubation, resazurin fluorescence was recorded (ex: 530 nm, em: 590 nm). Background-corrected data was used for further analysis.

[5] = NeuriTox test, neurite outgrowth impairment, LUHMES 24 h
[6] = NeuriTox exposure scheme, 24 h, read-out: LUHMES 24 h EC25 NA (neurite area) (converted)
[7] = NeuriTox exposure scheme, 24 h, read-out: LUHMES 24 h EC25 V (viability) (converted)

| SMILES | Ratios of EC25 KE4/KE1 complex assay [1] | Ratios of EC25 KE4/KE1 total respiration (HepG2 cells) | Ratios of EC25 KE4/KE2 MMP (SH-SY5Y cells) | EC25 (U2OS cells) | EC25 (LUHMES cells [4]) | EC25 (LUHMES cells [3]; [6]) | EC25 (LUHMES cells [3]; [7]) | further results |
| --- | --- | --- | --- | --- | --- | --- | --- | --- |
| CO/C=C(/C(=O)OC)c1ccccc1Oc1cc(Oc2ccccc2C#N)ncn1 [Azoxystrobin] | 4.0 | 10.0 | 9.8 | – | – | – | – | Ratios of EC25 KE4/KE3 proteasomal (proteasome): 0.9; log2FoldChange AARS (LUHMES cells [2]; 0.10 µM): -0.16 log2; log2FoldChange AASDHPPT (LUHMES cells [2]; 0.10 µM): 0.0857 log2; log2FoldChange AATF (LUHMES cells [2]; 0.10 µM): -0.0134 log2; log2FoldChange ABCA1 (LUHMES cells [2]; 0.10 µM): -0.16 log2; log2FoldChange ABCA6 (LUHMES cells [2]; 0.10 µM): -1.97 log2; EC25 KE4 (AO) Neurite toxicity (LUHMES cells [3]; [5]): 4.5 -log[M] |
| CSC1=N[C@@](C)(c2ccccc2)C(=O)N1Nc1ccccc1 [Fenamidone] | – | ≥ 10 | – | > 100 µM | > 50.1 µM | > 50.1 µM | > 50.1 µM | – |
| CC(C)(C)c1ccc(CCOc2ncnc3ccccc23)cc1 [Fenazaquin] | ≥ 800 | 40–60 | – | > 100 µM | 10 µM | 10 µM | 15.8 µM | – |
| Cc1occc1C(=O)Nc1ccccc1 [Fenfuram] | – | – | – | > 100 µM | > 100 µM | > 100 µM | > 100 µM | – |
| CC(C)Oc1cccc(NC(=O)c2ccccc2C(F)(F)F)c1 [Flutolanil] | – | – | – | > 100 µM | 79.4 µM | 79.4 µM | > 100 µM | – |
| CO/N=C(/C(=O)OC)c1ccccc1COc1ccccc1C [Kresoxim-methyl] | – | ≥ 10 | – | > 100 µM | 31.6 µM | 50.1 µM | 39.8 µM | – |
| CO/C=C(/C(=O)OC)c1ccccc1COc1cccc(C(F)(F)F)n1 [Picoxystrobin] | 31.6 | 63 | 4.7 | – | – | – | – | log2FoldChange AARS (LUHMES cells [2]; 0.10 µM): -0.76 log2; log2FoldChange AASDHPPT (LUHMES cells [2]; 0.10 µM): 1.04 log2; log2FoldChange AATF (LUHMES cells [2]; 0.10 µM): -0.34 log2; log2FoldChange ABCA1 (LUHMES cells [2]; 0.10 µM): -0.73 log2; log2FoldChange ABCA6 (LUHMES cells [2]; 0.10 µM): 1.05 log2; EC25 KE4 (AO) Neurite toxicity (LUHMES cells [3]; [5]): 4.4 -log[M] |
| CC(C)(C)c1ccc(CSc2cnn(C(C)(C)C)c(=O)c2Cl)cc1 [Pyridaben] | ≥ 800 | 40–60 | – | > 100 µM | 79.4 µM | 63.1 µM | > 100 µM | – |
| CCc1nn(C)c(C(=O)NCc2ccc(C(C)(C)C)cc2)c1Cl [Tebufenpyrad] | 1000 | 126 | 5.6 | > 100 µM | 12.6 µM | 20 µM | 20 µM | log2FoldChange AARS (LUHMES cells [2]; 0.09 µM): -0.0653 log2; log2FoldChange AASDHPPT (LUHMES cells [2]; 0.09 µM): 0.0475 log2; log2FoldChange AATF (LUHMES cells [2]; 0.09 µM): 0.19 log2; log2FoldChange ABCA1 (LUHMES cells [2]; 0.09 µM): -0.37 log2; log2FoldChange ABCA6 (LUHMES cells [2]; 0.09 µM): 0.84 log2; EC25 (LUHMES cells [3]; NeuriTox test, neurite outgrowth impairment, LUHMES 24 h, read-out: EC25 KE4 (AO) Neurite toxicity (converted)): 20 µM; EC25 (SH-SY5Y cells; Homo sapiens, SH-SY5Y differentiated 6 days, treated 24 h, rhodamine-123, read-out: pEC25 MMP (concentration where MMP was reduced by 25%) (converted)): 3.16 µM |
| CO/N=C(/C(=O)OC)c1ccccc1CO/N=C(\C)c1cccc(C(F)(F)F)c1 [Trifloxistrobin] | – | ≥ 10 | – | – | – | – | – | – |
